{
  "source": "patent US20050054587A1",
  "about": "“Novel therapeutic indication of azithromycin for treatment of non-infective inflamatory diseases” (priority 2001, published 2005)",
  "assay_type_in_all_cases": "in vivo, human",
  "key": {"myeloperoxidase (MPO) [1]": {"test_system": "myeloperoxidase (MPO)", "experiment": "Myeloperoxidase cytochemical score in blood smear neutrophils, healthy volunteer trial", "conditions": "healthy volunteers, azithromycin 3×500 mg, baseline 337 ± 29, score 0-400", "protocol": "(§1) A trial on healthy volunteers was conducted and the influence of azithromycin given in a dosage of 3×500 mg on selected inflammation-relevant parameters was followed up.\n(§2) Each subject received two standard 250 mg capsules of azithromycin (Sumamed®, PLIVA Zagreb) on three consecutive days. Immediately before the treatment and 2 h and 30 min, 24 h and 28 days after the third and last dose of azithromycin blood was collected from the cubital vein into EDTA-containing tubes. Aliquots were taken for cell counting, smear preparation, polymorphonuclear cell and serum isolation.\n(§3) The activity of MPO was assessed from the intensity of staining of neutrophils in blood smears and in cell lysates by ELISA. After fixation in ethanol-formaldehyde, smears were incubated in a substrate solution containing hydrogen peroxide and benzidine (SIGMA). After incubation, smears were counterstained with Giemsa solution. MPO value positivity_of 100 granulocytes was evaluated and scored from 0 to 4+ on the basis of the intensity of the precipitated dye in cytoplasm. Therefore, the value of the score could be from 0 to 400. Normal values of score range (290-390) were taken from this study before azithromycin administration. MPO activity was also evaluated on the digital image of smear taken with a digital camera under the high magnification (×1000) of light microscope. MPO activities in blood smear neutrophils decreased from 2 h and 30 min to 24 h after the last azithromycin dose and returned to baseline after 28 days (Table 1). The change in neutrophil enzyme protein followed the same pattern as that in intracellular enzyme activity, decreasing from 2 h and 30 min to 24 h after the last dose of azithromycin and returning to baseline after 28 days. Both methodological approaches of MPO determination confirmed each other. Degranulation presented with lower MPO neutrophil density determined_with cytochemistry was associated with lower MPO ELISA concentrations in neutrophil lysates."}, "myeloperoxidase (MPO) [2]": {"test_system": "myeloperoxidase (MPO)", "experiment": "Myeloperoxidase density on digital image of blood smear, healthy volunteer trial", "conditions": "healthy volunteers, azithromycin 3×500 mg, baseline 105 ± 13", "protocol": "as §1, §2, §3"}, "β-glucuronidase": {"test_system": "β-glucuronidase", "experiment": "β-glucuronidase activity in neutrophil (PMN) lysates, fluorimetric", "conditions": "healthy volunteers; for β-glucuronidase (PMN): azithromycin 3×500 mg, baseline 4.12 ± 2.7", "protocol": "as §1, §2\n(§4) Glycosidases are enzymes that catalyse hydrolysis of glycosidic bonds of oligosacharides and other glycosides. They are specific to the glycosidic part of substrate molecule. N-acetyl-β-D-glucosaminidase (NAGA) and β-glucuronidase are such enzymes. They are lysosomal enzymes, both located in azurophilic (primary; peroxidase-positive) granules of neutrophils. Since degranulation of neutrophils is present during inflammation, many authors choose these enzymes as markers of degranulation and for estimation of neutrophil reactivity. The catalytic concentration of both enzymes in serum and in neutrophil lysates was determined using the fluorimetric method described by O'Brien et al. (New Engl. J. Med. (1970) 283: 15-20) for NAGA and Glaser & Sly (J. Lab. Clin. Med. (1973) 82: 969) for β-glucuronidase."}, "[3]": {"test_system": "N-acetyl-β-D-glucosaminidase (NAGA)", "experiment": "NAGA activity in serum, fluorimetric", "conditions": "healthy volunteers; for NAGA (serum): azithromycin 3×500 mg, baseline 9.16 ± 1.6", "protocol": "as §1, §2, §4"}, "IL-8": {"test_system": "IL-8", "experiment": "Serum IL-8 concentration, ELISA", "conditions": "healthy volunteers, azithromycin 3×500 mg, baseline 29.47 ± 15.44", "protocol": "as §1, §2\n(§5) Cytokine and chemokine concentrations were determined using ELISA kits. […] Rapid and pronounced decreases in the plasma concentrations of the neutrophil-stimulating chemokine, IL-8, and GR0-α were observed 2 h and 30 min and 24 h after the last dose of azithromycin (Table 1. The concentration of IL-8 returned essentially to baseline after 28 days, while that of GRO-[…] was decreased at this time."}, "GRO-α": {"test_system": "GRO-α", "experiment": "Serum GRO-α concentration, ELISA", "conditions": "healthy volunteers, azithromycin 3×500 mg, baseline 124.1 ± 33.02", "protocol": "as §1, §2, §5"}, "neutrophils": {"test_system": "neutrophils", "experiment": "fMLP-stimulated neutrophil oxidative burst, cytochrome c assay", "conditions": "healthy volunteers, azithromycin 3×500 mg, baseline 0.020 ± 0,014, absorbances 550 nm and 540 nm", "protocol": "as §1, §2\nNeutrophils were incubated with cytochrome c and stimulated with fMLP (Cohen and Chovaniec, 1978, J. Clin. Invest. 61: 1081-1087). Absorbances at 550 nm and 540 nm were recorded and the results were expressed as delta A."}, "[4]": {"test_system": "glutathione peroxidase (GSHPx)", "experiment": "Glutathione peroxidase activity in PMN lysates (RANSEL kit)", "conditions": "healthy volunteers, azithromycin 3×500 mg, baseline 5.3 ± 2.0", "protocol": "as §1, §2\nCellular glutathione peroxidase (GSHPx) is a tetrameric protein in which each of the four identical subunits contains one atom of selenium (Se) in the form of selenocysteine at the active site (Misso et al., J. Leukoc. Biol. (1998), 63: 124-130). GSHPx plays a role in H202 detoxification and converts lipid hydroperoxides to nontoxic alcohols (Akkus et al., Clin. Chim. Acta (1996), 244: 221-227); Urban et al., Biomed & Pharmacother. (1997), 51: 388-390). In this study, in healthy volunteers treated with azithromycin alterations in the PMN intracellular GSHPx activity were determined using the commercially available kit RANSEL (Randox Laboratories). GSHPx catalyses the oxidation of glutathione by cumene hydroperoxide. In the presence of glutathione reductase and NADPH the oxidised glutathione is immediately converted to the reduced form with a concomitant oxidation of NADPH to NADP^+. The decrease in absorbance at 340 nm is measured."}, "[5]": {"test_system": "azurophilic granules of neutrophils", "experiment": "Release of glycosidases from azurophilic granules (NAGA and β-glucuronidase)", "conditions": "healthy volunteers, 3×500 mg; within 24 hours after the last dose", "protocol": "as §1, §2\nas §4, with “β-glucuronidase. […]” for “β-glucuronidase.”"}},
  "data": [
    {"smiles": "CC[C@H]1OC(=O)[C@H](C)[C@@H](O[C@H]2C[C@@](C)(OC)[C@@H](O)[C@H](C)O2)[C@H](C)[C@@H](O[C@@H]2O[C@H](C)C[C@H](N(C)C)[C@H]2O)[C@](C)(O)C[C@@H](C)CN(C)[C@H](C)[C@@H](O)[C@]1(C)O", "note": "[azithromycin, 9-deoxo-9-dihydro-9a-methyl-9a-aza-9a-homoerythromycin A]", "values": [
      {"measurement": "myeloperoxidase (score)", "setting": "myeloperoxidase (MPO) [1]; 2 h and 30 min after last dose", "value": "326 ± 26"},
      {"measurement": "myeloperoxidase (score)", "setting": "myeloperoxidase (MPO) [1]; 24 hours after last dose", "value": "315 ± 22"},
      {"measurement": "myeloperoxidase (score)", "setting": "myeloperoxidase (MPO) [1]; 28 days after last dose", "value": "347 ± 18"},
      {"measurement": "myeloperoxidase (density)", "setting": "myeloperoxidase (MPO) [2]; 2 h and 30 min after last dose", "value": "130 ± 16"},
      {"measurement": "myeloperoxidase (density)", "setting": "myeloperoxidase (MPO) [2]; 24 hours after last dose", "value": "131 ± 17"},
      {"measurement": "myeloperoxidase (density)", "setting": "myeloperoxidase (MPO) [2]; 28 days after last dose", "value": "115 ± 19"},
      {"measurement": "decrease of activities of β-glucuronidase in PMN compared to initial values", "setting": "β-glucuronidase; 3×500 mg, 24 hours", "value": "about 50%"},
      {"measurement": "β-glucuronidase activity in PMN higher compared to the initial values", "setting": "β-glucuronidase; 3×500 mg, 28 days later", "value": "about 300%"},
      {"measurement": "decrease of activities of β-glucuronidase in PMN compared to initial values", "setting": "β-glucuronidase; 3×500 mg, after 2 h and 30 min", "value": "about 20%"},
      {"measurement": "β-glucuronidase (PMN)", "setting": "β-glucuronidase; 2 h and 30 min after last dose", "value": "3.21 ± 2.3 nmol × 10^−6 cells × min^−1"},
      {"measurement": "β-glucuronidase (PMN)", "setting": "β-glucuronidase; 24 hours after last dose", "value": "1.58 ± 0.4 nmol × 10^−6 cells × min^−1"},
      {"measurement": "β-glucuronidase (PMN)", "setting": "β-glucuronidase; 28 days after last dose", "value": "15.37 ± 11.4 nmol × 10^−6 cells × min^−1"},
      {"measurement": "increase of activity of NAGA in serum vs initial values", "setting": "[3]; 3×500 mg, 2 h and 30 min after the last dose", "value": "about 30%"},
      {"measurement": "activity of NAGA in serum higher than the initial values", "setting": "[3]; 3×500 mg, 24 hours after the last dose", "value": "approximately 50%"},
      {"measurement": "serum NAGA values higher than initial values", "setting": "[3]; 3×500 mg, 28 days after the last dose", "value": 70, "unit": "%"},
      {"measurement": "NAGA (serum)", "setting": "[3]; 2 h and 30 min after last dose", "value": "11.52 ± 2.2", "unit": "µmol/L/min"},
      {"measurement": "NAGA (serum)", "setting": "[3]; 24 hours after last dose", "value": "13.7 ± 1.5", "unit": "µmol/L/min"},
      {"measurement": "NAGA (serum)", "setting": "[3]; 28 days after last dose", "value": "14.87 ± 1.9", "unit": "µmol/L/min"},
      {"measurement": "IL-8 (serum)", "setting": "IL-8; 2 h and 30 min after last dose", "value": "10.61 ± 3.81", "unit": "pg/mL"},
      {"measurement": "IL-8 (serum)", "setting": "IL-8; 24 hours after last dose", "value": "14.60 ± 10.75", "unit": "pg/mL"},
      {"measurement": "IL-8 (serum)", "setting": "IL-8; 28 days after last dose", "value": "23.03 ± 19.72", "unit": "pg/mL"},
      {"measurement": "GRO-α (serum)", "setting": "GRO-α; 2 h and 30 min after last dose", "value": "109.6 ± 30.35", "unit": "pg/mL"},
      {"measurement": "GRO-α (serum)", "setting": "GRO-α; 24 hours after last dose", "value": "107.9 ± 27.83", "unit": "pg/mL"},
      {"measurement": "GRO-α (serum)", "setting": "GRO-α; 28 days after last dose", "value": "90.4 ± 22.32", "unit": "pg/mL"},
      {"measurement": "OXIDATIVE BURST (PMN) fMLP-cytochrom c", "setting": "neutrophils; 2 h and 30 min after last dose", "value": "0,007 ± 0.015 ΔA"},
      {"measurement": "OXIDATIVE BURST (PMN) fMLP-cytochrom c", "setting": "neutrophils; 24 hours after last dose", "value": "−0,018 ± 0.010 ΔA"},
      {"measurement": "OXIDATIVE BURST (PMN) fMLP-cytochrom c", "setting": "neutrophils; 28 days after last dose", "value": "−0,0011 ± 0,0010 ΔA"},
      {"measurement": "GLUTATHION PEROXIDASE (PMN)", "setting": "[4]; 2 h and 30 min after last dose", "value": "5.3 ± 2.9", "unit": "mU/10^6PMN"},
      {"measurement": "GLUTATHION PEROXIDASE (PMN)", "setting": "[4]; 24 hours after last dose", "value": "1.6 ± 1.3", "unit": "mU/10^6PMN"},
      {"measurement": "GLUTATHION PEROXIDASE (PMN)", "setting": "[4]; 28 days after last dose", "value": "8.0 ± 5.2", "unit": "mU/10^6PMN"},
      {"measurement": "release of enzymes from azurophilic granules", "setting": "[5]", "value": "40-50%"}
    ]}
  ]
}
